Reference: patent US12351574B2, “Selective ligands for modulation of GIRK channels” (Northeastern University, priority 2018, dated 2025)
Residue numbers refer to the chain shown, from its start.

Tests used:
[1] = target: T1, GIRK1/4(VT-IV) (Homo sapiens, UniProt P48544+P48549, T94V/V92I); assay: TEVC in Xenopus oocytes, double mutant GIRK1/4(VT-IV); type: cell-based; details: GIRK1/4(VT-IV) double mutant
T1 construct: expressed in transfected cells; host or cells: Xenopus laevis oocytes (cRNA injection)
T1 sequence (P48549 1-501): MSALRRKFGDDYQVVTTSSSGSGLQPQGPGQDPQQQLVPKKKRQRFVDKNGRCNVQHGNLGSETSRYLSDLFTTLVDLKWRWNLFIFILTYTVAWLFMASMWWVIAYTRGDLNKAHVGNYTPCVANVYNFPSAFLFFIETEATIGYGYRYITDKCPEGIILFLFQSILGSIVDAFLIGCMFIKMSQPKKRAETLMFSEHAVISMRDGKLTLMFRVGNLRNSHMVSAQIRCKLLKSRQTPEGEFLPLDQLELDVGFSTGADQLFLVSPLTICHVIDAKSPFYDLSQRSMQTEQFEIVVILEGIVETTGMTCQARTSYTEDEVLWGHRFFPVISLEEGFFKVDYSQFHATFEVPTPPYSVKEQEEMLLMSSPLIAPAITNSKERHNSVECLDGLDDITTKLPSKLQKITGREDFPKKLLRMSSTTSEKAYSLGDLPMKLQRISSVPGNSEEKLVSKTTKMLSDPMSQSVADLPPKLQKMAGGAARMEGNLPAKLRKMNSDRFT
T1 sequence (P48544 1-419 V92I/T94V): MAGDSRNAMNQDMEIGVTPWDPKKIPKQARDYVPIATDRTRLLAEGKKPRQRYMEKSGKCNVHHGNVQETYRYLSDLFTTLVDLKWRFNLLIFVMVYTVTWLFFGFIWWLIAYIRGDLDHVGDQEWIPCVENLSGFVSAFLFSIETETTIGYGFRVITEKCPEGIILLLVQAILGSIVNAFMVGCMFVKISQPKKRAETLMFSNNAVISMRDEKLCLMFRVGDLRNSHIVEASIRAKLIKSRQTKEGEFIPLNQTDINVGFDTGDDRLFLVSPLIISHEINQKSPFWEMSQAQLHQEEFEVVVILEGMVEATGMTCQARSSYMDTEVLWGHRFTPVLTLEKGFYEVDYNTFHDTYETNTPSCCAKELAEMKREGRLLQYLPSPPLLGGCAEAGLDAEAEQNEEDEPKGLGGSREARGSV
Description: (§1) Molecular biology: For Xenopus oocyte expression, human GIRK1 and human GIRK4 cDNAs were subcloned into pGEMHE. For mammalian expression, human GIRK1 and human GIRK4 cDNAs were subcloned into pcDNA3 and pcDNA3.1/V5-His B, respectively (Invitrogen). Mouse GIRK2 cDNA was subcloned in the dual-function vector, pXoom. Point mutations were introduced using a standard Pfu-based mutagenesis technique according to the QuikChange protocol (Agilent). Mutations were verified by sequencing.
(§2) Electrophysiology of oocytes: Whole-oocyte currents were measured by conventional two-electrode voltage clamp (TEVC) with a GeneClamp 500 amplifier (Axon Instruments). Agarose cushion microelectrodes were filled with 1.5% (w/v) agarose in 3 M KCl and were used with resistances between 0.1 and 1.5 megaohms. […] Barium-sensitive basal currents from both groups, 1) Vehicle, 2) single concentration at 10 μM and 3) multiple concentrations of ML297 or GAT compounds in the presence of HK solution, were assessed at −80 mV using TEVC. Barium-sensitive currents were normalized to average basal current in the vehicle solutions. The HK solution contained the following: 96 mM KCl, 1 mM NaCl, 1 mM MgCl2, 5 mM KOH/HEPES, pH 7.4. The barium solution consisted of HK+10 mM BaCl2. Five to ten oocytes from the same batch (same frog) were recorded for each group, and the experiments were repeated in at least four batches. Data acquisition and analysis were carried out using pClamp9 (Molecular Devices) and OriginPro (Microcal) software.
(§3) To test these computational predictions, the inventors mutated each or both of the two M1 key wild-type GIRK4 subunit residues to the corresponding GIRK2 residues (GIRK4-V92I, GIRK4-T94V, GIRK4-V92I/T94V or GIRK4-dm) and vice-versa the GIRK2 residues to the corresponding GIRK4 ones (GIRK2-I97V, GIRK2-V99T, GIRK2-I97V/V99T or GIRK2-dm) (FIG. 35). […]

[2] = target: T2, GIRK1/4(T-V) (Homo sapiens, UniProt P48544+P48549, T94V); assay: TEVC in Xenopus oocytes, single mutant GIRK1/4(T-V); type: cell-based; details: GIRK1/4(T-V) single mutant
T2 construct: expressed in transfected cells; host or cells: Xenopus laevis oocytes (cRNA injection)
T2 sequence (P48549 1-501): T1 sequence (P48549 1-501)
T2 sequence (P48544 1-419 T94V): T1 sequence (P48544 1-419 V92I/T94V) with I92V
Description: as §1, §2, §3

[3] = elevated plus maze (EPM); type: in vivo, rat; details: 30 mg/kg; vehicle group 30.6±4.4; trend
Method: Elevated plus maze (EPM): The EPM, as described previously was performed in a black Plexiglas apparatus (Hamilton Kinder, San Diego, CA) that consists of two open arms and two closed arms each 50.17 cm long and 10.8 cm wide. The closed arms have walls that are 40.01 cm high. The entire apparatus is elevated 100 cm above the ground on a square aluminum base. For a testing period of 5 min, anxiety is estimated by the amount of time rats spend in the closed versus open arms. Test sessions were video recorded by ceiling mounted cameras.

[4] = read-out: EMAX, % of the control GIRK1/2

EC50 [1]: 550 ± 110 nM | EMAX [1]: 1.76±0.03 | Emax [1, 4]: 75% | EC50 [2]: 500 ± 470 nM | EMAX [2]: 1.12±0.03 | Emax [2, 4]: 7% | time spent on the open arm [3]: 48.7 ± 8.3 s
SMILES: Cc1cc(NC(=O)Nc2ccc(Br)s2)n(-c2ccccc2)n1 [GAT1508, 1-(5-bromothiophen-2-yl)-3-(3-methyl-1-phenyl-1H-pyrazol-5-yl)urea]
